Data from patent US8263598B2, “Substituted sulfonamide compounds” (Gruenenthal GmbH, priority 2008, dated 2012).

What was measured:
[1] = biological target: T1, B1R receptor of rats (rB1R) (Rattus norvegicus, UniProt P97583); test: FLIPR Ca2+ assay on rat bradykinin 1 receptor (CHO K1 rB1R cells); format: cell-based; settings: test substance 10 μM; CHO K1 cells with B1R gene of rats; agonist Des-Arg9-bradykinin 100 nM; compared to maximum achievable inhibition
T1 construct: host or cells: CHO K1 cells
T1 sequence (P97583 1-337): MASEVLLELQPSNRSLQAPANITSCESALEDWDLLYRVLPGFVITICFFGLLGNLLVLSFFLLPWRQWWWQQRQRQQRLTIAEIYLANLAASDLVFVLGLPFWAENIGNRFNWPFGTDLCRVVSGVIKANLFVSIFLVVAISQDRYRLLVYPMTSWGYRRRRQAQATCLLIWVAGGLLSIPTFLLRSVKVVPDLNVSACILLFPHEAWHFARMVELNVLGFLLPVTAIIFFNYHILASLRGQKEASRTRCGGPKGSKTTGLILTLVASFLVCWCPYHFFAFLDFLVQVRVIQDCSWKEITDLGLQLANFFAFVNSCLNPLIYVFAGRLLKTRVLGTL
Experimental: (§1) The agonistic or antagonistic action of compounds can be quantified on the bradykinin 1 receptor (B1R) of humans and rats with ectopically expressing cell lines (CHO K1 cells) and with the aid of a Ca^2+-sensitive dye (Fluo-4) in the fluorescent imaging plate reader (FLIPR). The figure in percent activation refers to the Ca^2+ signal after addition of Lys-Des-Arg^9-bradykinin (0.5 nM) and Des-Arg^9-bradykinin (100 nM). Antagonists result in a suppression of the Ca^2+ inflow after the addition of the agonist. Percent inhibition values are given in comparison to the maximum achievable inhibition.
(§2) The agonistic or antagonistic action of substances can be determined on the bradykinin 1 receptor (B1R) of humans and rats by means of the following assay.
(§3) According to this assay the Ca^2+ inflow through the channel is quantified by means of a Ca^2+-sensitive dye (Fluo-4 type, Molecular Probes Europe BV, Leiden, Netherlands), in a Fluorescent Imaging Plate Reader (FLIPR, Molecular Devices, Sunnyvale, USA). Method:
(§4) Chinese hamster ovary cells (CHO K1 cells) are used, which are stably transfected with the human B1R gene (hB1R cells, Euroscreen s.a., Gosselies, Belgium), or with the B1R gene of rats (rB1R cells, Axxam, Milan, Italy). For functional investigations these cells are plated out on black 96-well plates with a clear floor (BD Biosciences, Heidelberg, Germany) in a density of 20,000/25,000 cells/well. The cells are incubated overnight with 10 vol. % FBS (foetal bovine serum, Gibco Invitrogen GmbH, Karlsruhe, Germany) at 37° C. and 5% CO2 in a culture medium (hB1R cells: Nutrient Mixture Ham's F12, Gibco Invitrogen GmbH, Karlsruhe, Germany; rB1R cells: D-MEM/F12, Gibco Invitrogen GmbH, Karlsruhe, Germany). The following day the cells are charged for 60 minutes at 37° C. with 2.13 μM Fluo-4 (Molecular Probes Europe BV, Leiden, Netherlands) in HBSS buffer (Hank's buffered saline solution, Gibco Invitrogen GmbH, Karlsruhe, Germany) together with […] (Sigma-Aldrich, Taufkirchen, Germany) and 10 mM HEPES (Sigma-Aldrich, Taufkirchen, Germany).
(§5) The plates are then washed twice with HBSS buffer and HBSS buffer is added which additionally contains 0.1% BSA (bovine serum albumin; Sigma-Aldrich, Taufkirchen, Germany), 5.6 mM glucose and 0.05% gelatin (Merck KGaA, Darmstadt, Germany). After further incubation for 20 minutes at room temperature the plates are used for the Ca^2+ measurement in the FLIPR. The Ca^2+-dependent fluorescence is measured both before and after the addition of substances (λex=488 nm, λem=540 nm). The quantification is carried out by measuring the highest fluorescence intensity (FC, fluorescence counts) over time.
(§6) The FLIPR protocol consists of two substance additions. First of all test substances (10 μM) are pipetted onto the cells and the Ca^2+ inflow is compared with the control (hB1R: Lys-Des-Arg9-bradykinin 0.5 nM; rB1R: Des-Arg9-bradykinin 100 nM). This gives the result in percent activation referred to the Ca^2+ signal after addition of Lys-Des-Arg9-bradykinin (0.5 nM), bzw. Des-Arg9-bradykinin (100 nM). After 10 minutes' incubation 0.5 nM Lys-Des-Arg9-bradykinin (hB1R) and 100 nM Des-Arg^9-bradykinin (rB1R) are applied and the inflow of Ca^2+ is likewise determined. Antagonists lead to a suppression of the Ca^2+ inflow. The percent inhibition compared to the maximum achievable inhibition is calculated. The compounds show a good activity on both human and rat receptors.
(§7) The agonistic and antagonistic action of the compounds according to the invention on the bradykinin 1 receptor (B1R) of humans and rats were determined as described above. Antagonists lead to a suppression of the Ca^2+ inflow. The % inhibition compared to the maximum achievable inhibition was calculated.

[2] = biological target: T2, human B1R receptor (hB1R) (Homo sapiens, UniProt P46663); test: FLIPR Ca2+ assay on human bradykinin 1 receptor (CHO K1 hB1R cells); format: cell-based; settings: test substance 10 μM; CHO K1 cells with human B1R gene; agonist Lys-Des-Arg9-bradykinin 0.5 nM; compared to maximum achievable inhibition
T2 construct: host or cells: CHO K1 cells
T2 sequence (P46663 1-353): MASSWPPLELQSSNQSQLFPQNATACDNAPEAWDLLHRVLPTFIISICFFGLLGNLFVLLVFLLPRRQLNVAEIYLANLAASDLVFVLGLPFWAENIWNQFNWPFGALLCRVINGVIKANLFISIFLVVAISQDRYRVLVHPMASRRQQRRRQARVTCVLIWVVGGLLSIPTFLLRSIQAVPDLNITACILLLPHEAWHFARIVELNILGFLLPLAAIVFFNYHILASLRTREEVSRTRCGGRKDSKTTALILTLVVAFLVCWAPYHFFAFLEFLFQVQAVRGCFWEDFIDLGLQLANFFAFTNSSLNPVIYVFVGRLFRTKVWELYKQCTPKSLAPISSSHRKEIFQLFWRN
Experimental: as §1, §2, §3, §4, §5, §6, §7

Row | SMILES | inhibition at 10 µM [1] | inhibition at 10 µM [2]
1 | COc1cc(C)c(S(=O)(=O)N(C)CCOCC(=O)N2CCn3c(CN(C)C)ccc3C2c2ccccc2)c(C)c1C (stereo not drawn) [Example 1, N-(2-(2-(6-((dimethylamino)methyl)-1-phenyl-3,4-dihydropyrrolo[1,2-a]pyrazin-2(1H)-yl)-2-oxoethoxy)ethyl)-4-methoxy-N,2,3,6-tetramethylbenzene-sulfonamide] | 58% | 89%
2 | COc1cc(C)c(S(=O)(=O)N(C)CCOCC(=O)N2CCn3cc(CN4CCCCC4)nc3C2)c(C)c1 [Example 2, 4-methoxy-N,2,6-trimethyl-N-(2-(2-oxo-2-(2-(piperidin-1-ylmethyl)-5,6-dihydroimidazo[1,2-a]pyrazin-7(8H)-yl)ethoxy)ethyl)benzenesulfonamide] | 104% | 106%
3 | COc1cc(C)c(S(=O)(=O)N(C)CCOCC(=O)N2CCn3cnnc3C2)c(C)c1 [Example 3, N-(2-(2-(5,6-dihydro-[1,2,4]triazolo[4,3-a]pyrazin-7(8H)-yl)-2-oxoethoxy)ethyl)-4-methoxy-N,2,6-trimethylbenzenesulfonamide] | 93% | 43%
4 | O=C(C[C@@H](NS(=O)(=O)c1ccc2ccccc2c1)c1ccccc1)N1CCn2cc(CN3CCCCC3)nc2C1 [Example 4, (R)-N-(3-oxo-1-phenyl-3-(2-(piperidin-1-ylmethyl)-5,6-dihydroimidazo[1,2-a]pyrazin-7(8H)-yl)propyl)naphthalene-2-sulfonamide] | 98% | 102%
5 | O=C(C[C@@H](NS(=O)(=O)c1ccc2ccccc2c1)c1ccccc1)N1CCn2c(nc(CN3CCCCC3)c2Cl)C1 [Example 5, (R)-N-(3-(3-chloro-2-(piperidin-1-ylmethyl)-5,6-dihydroimidazo[1,2-a]pyrazin-7(8H)-yl)-3-oxo-1-phenylpropyl)naphthalene-2-sulfonamide] | 97% | 99%
6 | COc1cc(C)c(S(=O)(=O)N(C)CCOCC(=O)N2CCn3c(nc(CN4CCCCC4)c3Cl)C2)c(C)c1 [Example 6, N-(2-(2-(3-chloro-2-(piperidin-1-ylmethyl)-5,6-dihydroimidazo[1,2-a]pyrazin-7(8H)-yl)-2-oxoethoxy)ethyl)-4-methoxy-N,2,6-trimethylbenzenesulfonamide] | 99% | 100%
7 | COc1cc(C)c(S(=O)(=O)N(C)CCOCC(=O)N2CCn3c(CN4CCOCC4)ccc3C2)c(C)c1 [Example 7, 4-methoxy-N,2,6-trimethyl-N-(2-(2-(6-(morpholinomethyl)-3,4-dihydropyrrolo[1,2-a]pyrazin-2(1H)-yl)-2-oxoethoxy)ethyl)benzenesulfonamide] | 99% | 101%
8 | O=C(CC(NS(=O)(=O)c1ccc2ccccc2c1)c1ccccc1)N1CCn2c(CN3CCCC3)ccc2C1 (stereo not drawn) [Example 8, N-(3-oxo-1-phenyl-3-(6-(pyrrolidin-1-ylmethyl)-3,4-dihydropyrrolo[1,2-a]pyrazin-2(1H)-yl)propyl)naphthalene-2-sulfonamide] | 42% | 95%
9 | COc1cc(C)c(S(=O)(=O)N(C)CCOCC(=O)N2CCn3c(CN4CCN(C)CC4)ccc3C2)c(C)c1 [Example 9, 4-methoxy-N,2,6-trimethyl-N-(2-(2-(6-((4-methylpiperazin-1-yl)methyl)-3,4-dihydropyrrolo[1,2-a]pyrazin-2(1H)-yl)-2-oxoethoxy)ethyl)benzenesulfonamide] | 102% | 101%
10 | O=C(CC(NS(=O)(=O)c1ccc2ccccc2c1)c1ccccc1)N1CCn2c(CN3CCOCC3)ccc2C1 (stereo not drawn) [Example 10, N-(3-(6-(morpholinomethyl)-3,4-dihydropyrrolo[1,2-a]pyrazin-2(1H)-yl)-3-oxo-1-phenylpropyl)naphthalene-2-sulfonamide] | 100% | 97%
11 | COc1cc(C)c(S(=O)(=O)N(C)CCOCC(=O)N2CCn3c(CN4CCCC4)ccc3C2)c(C)c1 [Example 11, 4-methoxy-N,2,6-trimethyl-N-(2-(2-oxo-2-(6-(pyrrolidin-1-ylmethyl)-3,4-dihydropyrrolo[1,2-a]pyrazin-2(1H)-yl)ethoxy)ethyl)benzenesulfonamide] | 102% | 103%
12 | COc1cc(C)c(S(=O)(=O)N(C)CCOCC(=O)N2CCn3c(CCCN4CCN(C)CC4)ccc3C2)c(C)c1 [Example 12, 4-methoxy-N,2,6-trimethyl-N-(2-(2-(6-(3-(4-methylpiperazin-1-yl)propyl)-3,4-dihydropyrrolo[1,2-a]pyrazin-2(1H)-yl)-2-oxoethoxy)ethyl)benzenesulfonamide] | 100% | 97%
13 | CN1CCN(CCCc2ccc3n2CCN(C(=O)CC(NS(=O)(=O)c2ccc4ccccc4c2)c2ccccc2)C3)CC1 (stereo not drawn) [Example 13, N-(3-(6-(3-(4-methylpiperazin-1-yl)propyl)-3,4-dihydropyrrolo[1,2-a]pyrazin-2(1H)-yl)-3-oxo-1-phenylpropyl)naphthalene-2-sulfonamide] | 100% | 44%
14 | COc1cc(C)c(S(=O)(=O)N(C)CCOCC(=O)N2CCn3c(CN(C)C)ccc3C2c2ccccc2)c(C)c1 (stereo not drawn) [Example 14, N-(2-(2-(6-((dimethylamino)methyl)-1-phenyl-3,4-dihydropyrrolo[1,2-a]pyrazin-2(1H)-yl)-2-oxoethoxy)ethyl)-4-methoxy-N,2,6-trimethylbenzenesulfonamide] | 100% | 103%
15 | COc1cc(C)c(S(=O)(=O)N(C)CCOCC(=O)N2CCn3c(CN4CCCCC4)nnc3C2)c(C)c1 [Example 163, 4-Methoxy-N,2,6-trimethyl-N-(2-(2-oxo-2-(3-(piperidin-1-ylmethyl)-5,6-dihydro-[1,2,4]triazolo[4,3-a]pyrazin-7(8H)-yl)ethoxy)ethyl)benzenesulfonamide] | 103% | –
16 | O=C(C[C@@H](NS(=O)(=O)c1ccc2ccccc2c1)c1ccccc1)N1CCn2c(CN3CCCCC3)nnc2C1 [Example 164, (R)-N-(3-oxo-1-phenyl-3-(3-(piperidin-1-ylmethyl)-5,6-dihydro-[1,2,4]triazolo[4,3-a]pyrazin-7(8H)-yl)propyl)naphthalene-2-sulfonamide] | 102% | –
